The text below walks through data of US8841452B1, “Process for recovery of nalmefene hydrochloride” (H. Lundbeck A/S, priority 2011, dated 2014).

Structures can show the parent of a compound that is named as a salt.

Series [1] can be described thus: solubility in aqueous medium. It is filed as physicochemical. The following applies: compared to naltrexone itself. An excerpt: Since only compounds containing a carbonyl moiety can react with the bisulfite anion nalmefene cannot undergo to such reaction. The bisulfite adduct of naltrexone is more soluble than naltrexone itself thus permitting the removal of this impurity.

For series [2] the following is noted: crystalline form; improves API stability under storage and formulation conditions; cited from earlier work.
For series [3] the following is noted: compared to naltrexone; cited from earlier work.
For series [4] the following is noted: compared to naltrexone; cited from earlier work. This is another data set of the same source.
For series [5] the following is noted: compared to naltrexone; cited from earlier work. The source holds these as a separate data set.
The conditions of series [6]: hydrochloride salt, doses of 10 to 40 mg taken when the patient experiences a craving for alcohol; cited from earlier work.

Consider `O=S(=O)(O)C1(O)CC[C@@]2(O)[C@H]3Cc4ccc(O)c5c4[C@@]2(CCN3CC2CC2)[C@H]1O5` (stereo partly drawn) [bisulfite adduct of naltrexone], for which, in series [1], the solubility result is given as “more soluble”.

As for `C=C1CC[C@@]2(O)[C@H]3Cc4ccc(O)c5c4[C@@]2(CCN3CC2CC2)[C@H]1O5` [nalmefene hydrochloride dihydrate], the hygroscopic properties result in series [2] is “non-hygroscopic”.

Take `C=C1CC[C@@]2(O)[C@H]3Cc4ccc(O)c5c4[C@@]2(CCN3CC2CC2)[C@H]1O5` [nalmefene, 17-(cyclopropylmethyl)-4,5-alpha-epoxy-6-methylenemorphinan-3,14-diol hydrochloride]: in series [3], the half-life entry was “longer”. For the same compound, the oral bioavailability result in series [4] is on record as “higher”. Moreover, in series [5], the dose-dependent liver toxicity entry is “absence”. Further, the “effect in the management of alcohol dependency” value in series [6] was “good effect”.
